# Test results as given in US20050049245A1, “Heteroaryl-ethanolamine derivatives as antiviral agents” (priority 2002, published 2005).
# Like-named read-outs stand apart in the source and are kept apart here.
# Tests used:
# HSV polymerase = HSV polymerase (Human herpesvirus 1, UniProt P04293); assay: HSV polymerase assay (Table 1); type: biochemical
# HCMV polymerase = molecular target: T1, HCMV polymerase (Human cytomegalovirus, UniProt P08546); assay: HCMV polymerase scintillation proximity assay (SPA); type: biochemical
# T1 construct: made in house; host or cells: recombinant baculovirus-infected SF-9 cells
# Protocol: The HCMV polymerase assay is performed using a scintillation proximity assay (SPA) as described in several references, such as N. D. Cook, et al., Pharmaceutical Manufacturing International, pages 49-53 (1992); KY Takeuchi, Laboratory Practice, September issue (1992); U.S. Pat. No. 4,568,649 (1986); which are incorporated by reference herein. Reactions are performed in 96-well plates. The assay is conducted in 100 yl volume with 5.4 mM HEPES (pH 7.5), 11.7 mM KCl, 4.5 mM MgCl2, 0.36 mg/ml BSA, and 90 nM ^3H-dTTP. Assays are run with and without CHAPS, (3-[(3-Cholamidopropyl)-dimethylammonio]-1-propane-sulfonate) at a final concentration of 2 mM. HCMV polymerase is diluted in enzyme dilution buffer containing 50% glycerol, 250 mM NaCl, 10 mM HEPES (pH 7.5), 100 μg/ml BSA, and 0.01% sodium azide. The HCMV polymerase, which is expressed in recombinant baculovirus-infected SF-9 cells and purified according to literature procedures, is added at 10% (or 10 μl) of the final reaction volume, i.e., 100 μl. Compounds are diluted in 50% DMSO and 10 μl are added to each well. Control wells contain an equivalent concentration of DMSO. Unless noted otherwise, reactions are initiated via the addition of 6 nM biotinylated poly(dA)-oligo(dT) template/primer to reaction mixtures containing the enzyme, substrate, and compounds of interest. Plates are incubated in a 25° C. or 37° C. H2O bath and terminated via the addition of 40 μl/reaction of 0.5 M EDTA (pH 8) per well. Reactions are terminated within the time-frame during which substrate incorporation is linear and varied depending upon the enzyme and conditions used, i.e., 30 min. for HCMV polymerase. Ten (10) μl of streptavidin-SPA beads (20 mg/ml in PBS/10% glycerol) are added following termination of the reaction. Plates are incubated 10 min. at 37° C., then equilibrated to room temperature, and counted on a Packard Topcount. Linear regressions are performed and IC50's are calculated using computer software.
# A modified version of the above HCMV polymerase assay is performed as described above, but with the following changes: Compounds are diluted in 100% DMSO until final dilution into assay buffer. In the previous assay, compounds are diluted in 50% DMSO. 4.5 mM Dithiothreitol (DTT) is added to the polymerase buffer.
# All results are listed as Polymerase IC50 ([…]) values. In Table 1, the term “n.d.” refers to activity data not determined.
# VZV polymerase = VZV polymerase (Varicella-zoster virus, UniProt P09252); assay: VZV polymerase assay (Table 1); type: biochemical
# [1] = HSV polymerase, read-out: Polymerase IC50 HSV
# [2] = HCMV polymerase, SPA, read-out: Polymerase IC50 HCMV
# [3] = VZV polymerase, read-out: Polymerase IC50 VZV
# Sequence of HSV polymerase (P04293 whole entry): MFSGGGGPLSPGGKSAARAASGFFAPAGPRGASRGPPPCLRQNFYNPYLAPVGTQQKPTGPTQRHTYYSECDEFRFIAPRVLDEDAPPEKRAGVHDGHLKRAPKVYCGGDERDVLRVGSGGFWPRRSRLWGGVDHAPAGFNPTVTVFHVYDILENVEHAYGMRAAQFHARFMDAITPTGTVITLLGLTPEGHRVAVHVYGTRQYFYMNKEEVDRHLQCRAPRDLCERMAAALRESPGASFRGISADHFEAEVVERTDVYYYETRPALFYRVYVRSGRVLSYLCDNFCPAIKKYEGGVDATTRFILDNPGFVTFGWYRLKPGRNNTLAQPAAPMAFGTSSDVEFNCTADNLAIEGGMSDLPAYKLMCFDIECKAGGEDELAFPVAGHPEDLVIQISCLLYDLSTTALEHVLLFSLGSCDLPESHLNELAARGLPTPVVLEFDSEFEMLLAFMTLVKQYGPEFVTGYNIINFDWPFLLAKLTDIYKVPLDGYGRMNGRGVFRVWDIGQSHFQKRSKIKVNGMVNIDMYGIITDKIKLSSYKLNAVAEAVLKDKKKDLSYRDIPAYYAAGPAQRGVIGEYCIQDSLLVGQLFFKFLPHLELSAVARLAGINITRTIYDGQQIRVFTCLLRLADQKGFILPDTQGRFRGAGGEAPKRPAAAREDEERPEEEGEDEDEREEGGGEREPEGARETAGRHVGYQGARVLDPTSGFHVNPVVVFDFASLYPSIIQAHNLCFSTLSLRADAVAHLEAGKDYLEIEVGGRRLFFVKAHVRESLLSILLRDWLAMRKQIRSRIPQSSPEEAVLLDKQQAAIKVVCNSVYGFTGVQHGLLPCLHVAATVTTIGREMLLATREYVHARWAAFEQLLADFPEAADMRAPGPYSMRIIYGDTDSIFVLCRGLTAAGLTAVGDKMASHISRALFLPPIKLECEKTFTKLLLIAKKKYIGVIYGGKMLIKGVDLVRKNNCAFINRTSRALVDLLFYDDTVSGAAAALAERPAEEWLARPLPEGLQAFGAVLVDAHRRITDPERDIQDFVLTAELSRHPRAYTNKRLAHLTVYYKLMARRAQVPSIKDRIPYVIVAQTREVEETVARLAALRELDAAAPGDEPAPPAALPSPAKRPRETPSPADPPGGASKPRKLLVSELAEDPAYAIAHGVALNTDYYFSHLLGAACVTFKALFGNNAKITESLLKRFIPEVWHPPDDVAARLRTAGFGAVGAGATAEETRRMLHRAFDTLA
# Sequence of VZV polymerase (P09252 whole entry): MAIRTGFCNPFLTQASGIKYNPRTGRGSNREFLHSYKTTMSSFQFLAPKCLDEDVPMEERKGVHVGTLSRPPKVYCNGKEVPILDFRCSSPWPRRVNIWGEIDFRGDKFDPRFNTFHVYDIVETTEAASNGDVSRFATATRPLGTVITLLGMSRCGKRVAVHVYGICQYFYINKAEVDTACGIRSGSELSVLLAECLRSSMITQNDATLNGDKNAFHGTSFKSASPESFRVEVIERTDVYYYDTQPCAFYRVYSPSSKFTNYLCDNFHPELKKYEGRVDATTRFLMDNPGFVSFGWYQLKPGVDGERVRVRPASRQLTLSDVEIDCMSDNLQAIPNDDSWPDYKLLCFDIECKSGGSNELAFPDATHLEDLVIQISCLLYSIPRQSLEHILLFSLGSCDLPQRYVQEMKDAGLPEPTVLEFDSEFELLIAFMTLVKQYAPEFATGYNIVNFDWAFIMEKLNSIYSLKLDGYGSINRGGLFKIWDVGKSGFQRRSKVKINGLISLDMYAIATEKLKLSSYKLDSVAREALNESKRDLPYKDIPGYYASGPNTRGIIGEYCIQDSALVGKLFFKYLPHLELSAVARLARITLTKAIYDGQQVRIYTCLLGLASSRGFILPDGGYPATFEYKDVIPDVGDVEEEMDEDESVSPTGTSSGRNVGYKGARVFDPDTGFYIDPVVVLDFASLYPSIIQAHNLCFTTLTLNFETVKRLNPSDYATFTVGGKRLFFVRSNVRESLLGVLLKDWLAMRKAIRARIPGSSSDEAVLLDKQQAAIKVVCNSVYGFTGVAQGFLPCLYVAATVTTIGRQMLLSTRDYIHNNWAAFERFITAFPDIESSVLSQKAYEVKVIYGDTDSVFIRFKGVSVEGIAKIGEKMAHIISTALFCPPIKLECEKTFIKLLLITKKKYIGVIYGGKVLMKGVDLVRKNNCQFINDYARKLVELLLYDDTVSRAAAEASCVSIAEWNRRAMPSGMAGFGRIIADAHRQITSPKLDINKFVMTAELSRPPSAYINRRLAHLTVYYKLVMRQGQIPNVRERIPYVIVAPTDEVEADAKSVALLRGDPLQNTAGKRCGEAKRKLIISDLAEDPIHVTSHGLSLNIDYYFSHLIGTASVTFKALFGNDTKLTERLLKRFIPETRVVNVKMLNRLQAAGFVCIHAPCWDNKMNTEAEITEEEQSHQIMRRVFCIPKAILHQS
# T1 sequence (P08546 whole entry): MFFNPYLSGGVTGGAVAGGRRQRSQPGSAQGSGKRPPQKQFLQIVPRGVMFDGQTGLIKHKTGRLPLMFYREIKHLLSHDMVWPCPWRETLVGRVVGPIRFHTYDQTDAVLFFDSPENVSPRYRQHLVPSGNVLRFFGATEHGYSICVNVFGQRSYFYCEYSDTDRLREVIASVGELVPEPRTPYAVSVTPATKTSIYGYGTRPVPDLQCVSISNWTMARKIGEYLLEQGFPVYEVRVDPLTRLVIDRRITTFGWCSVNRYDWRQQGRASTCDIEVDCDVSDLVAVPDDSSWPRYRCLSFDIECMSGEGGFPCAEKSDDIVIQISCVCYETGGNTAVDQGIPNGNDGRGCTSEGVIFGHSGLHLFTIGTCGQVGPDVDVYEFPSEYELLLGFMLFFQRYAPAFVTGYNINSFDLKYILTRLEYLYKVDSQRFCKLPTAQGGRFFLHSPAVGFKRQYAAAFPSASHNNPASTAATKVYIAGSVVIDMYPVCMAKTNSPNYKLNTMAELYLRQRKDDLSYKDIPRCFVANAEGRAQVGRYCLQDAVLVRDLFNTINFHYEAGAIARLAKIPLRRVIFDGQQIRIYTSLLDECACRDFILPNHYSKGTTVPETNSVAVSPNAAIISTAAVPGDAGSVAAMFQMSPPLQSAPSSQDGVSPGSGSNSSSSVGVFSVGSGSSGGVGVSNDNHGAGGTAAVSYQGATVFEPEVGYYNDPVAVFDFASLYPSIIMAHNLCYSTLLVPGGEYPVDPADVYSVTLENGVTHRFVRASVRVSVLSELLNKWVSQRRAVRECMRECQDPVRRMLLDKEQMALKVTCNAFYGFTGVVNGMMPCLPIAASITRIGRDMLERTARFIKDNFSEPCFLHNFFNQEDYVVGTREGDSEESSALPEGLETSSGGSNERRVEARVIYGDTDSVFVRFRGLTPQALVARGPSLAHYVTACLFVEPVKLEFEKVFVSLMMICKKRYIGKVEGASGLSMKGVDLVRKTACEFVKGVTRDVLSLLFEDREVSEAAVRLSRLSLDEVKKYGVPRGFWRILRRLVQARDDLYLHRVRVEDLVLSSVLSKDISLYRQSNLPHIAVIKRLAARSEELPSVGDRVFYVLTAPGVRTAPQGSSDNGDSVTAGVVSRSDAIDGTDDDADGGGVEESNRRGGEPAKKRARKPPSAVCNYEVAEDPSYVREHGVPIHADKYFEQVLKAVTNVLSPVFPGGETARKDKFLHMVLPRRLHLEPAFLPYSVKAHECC
IC50 (HSV polymerase; [1]),IC50 (HCMV polymerase; [2]),IC50 (VZV polymerase; [3]),SMILES,further results
390 nM,120 nM,110 nM,"CN(Cc1cc2c(=O)c(C(=O)NCc3ccc(Cl)cc3)cn(C)c2s1)CC(O)c1nc2ccccc2s1 (racemic) [Example 17, rac-2-(((2-(1,3-Benzothiazol-2-yl)-2-hydroxyethyl)(methyl)amino)methyl)-N-(4-chlorobenzyl)-7-methyl-4-oxo-4,7-dihydrothieno[2,3-b]pyridine-5-carboxamide]",
,560 nM,,"CN(Cc1cc2c(=O)c(C(=O)NCc3ccc(Cl)cc3)cn(CCOCCO)c2s1)C[C@@H](O)c1ccco1 [Example 35, N-(4-Chlorobenzyl)-2-((((2R)-2-(2-furyl)-2-hydroxyethyl)(methyl)amino)methyl)-7-(2-(2-hydroxyethoxy)ethyl)-4-oxo-4,7-dihydrothieno[2,3-b]pyridine-5-carboxamide]",
220 nM,80 nM,60 nM,"CN(Cc1cc2c(=O)c(C(=O)NCc3ccc(Cl)cc3)cn(C)c2s1)CC(O)c1ccco1 (racemic) [Example 1, rac-N-(4-Chlorobenzyl)-2-(((2-(2-furyl)-2-hydroxyethyl)(methyl)amino)methyl)-7-methyl-4-oxo-4,7-dihydrothieno[2,3-b]pyridine-5-carboxamide]",
,240 nM,,"CN(Cc1cc2c(=O)c(C(=O)NCc3ccc(Cl)cc3)cn(C)c2s1)CC(O)c1ccc(C#N)s1 (racemic) [Example 15, rac-N-(4-Chlorobenzyl)-2-(((2-(5-cyanothien-2-yl)-2-hydroxyethyl)(methyl)-amino)methyl)-7-methyl-4-oxo-4,7-dihydrothieno[2,3-b]pyridine-5-carboxamide]",melting point: 155 to 160 °C (dec.)
1080 nM,240 nM,340 nM,"CN(Cc1cc2c(=O)c(C(=O)NCc3ccc(Cl)cc3)cn(CCO)c2s1)C[C@@H](O)c1ccco1 [Example 34, N-(4-Chlorobenzyl)-2-((((2R)-2-(2-furyl)-2-hydroxyethyl)(methyl)amino)methyl)-7-(2-hydroxyethyl)-4-oxo-4,7-dihydrothieno[2,3-b]pyridine-5-carboxamide]",
,350 nM,,"COCCn1cc(C(=O)NCc2ccc(Cl)cc2)c(=O)c2cc(CN(C)C[C@@H](O)c3ccco3)sc21 [Example 21, N-(4-Chlorobenzyl)-2-((((2R)-2-(2-furyl)-2-hydroxyethyl)(methyl)amino)methyl)-7-(2-methoxyethyl)-4-oxo-4,7-dihydrothieno[2,3-b]pyridine-5-carboxamide]",
90 nM,40 nM,30 nM,"CN(Cc1cc2c(=O)c(C(=O)NCc3ccc(Cl)cc3)cn(C)c2s1)C[C@@H](O)c1ccco1 [Example 2, (+)—N-(4-Chlorobenzyl)-2-((((R)-2-(2-furyl)-2-hydroxyethyl)(methyl)amino)-methyl)-7-methyl-4-oxo-4,7-dihydrothieno [2,3-b]pyridine-5-carboxamide]",
,1060 nM,,"CN(Cc1cc2c(=O)c(C(=O)NCc3ccc(Cl)cc3)cn(C)c2s1)CC(O)c1cn(C)cn1 (racemic) [Example 9, rac-N-(4-Chlorobenzyl)-2-(((2-hydroxy-2-(1-methyl-1H-imidazol-4-yl)ethyl) (methyl)amino)methyl)-7-methyl-4-oxo-4,7-dihydrothieno[2,3-b]pyridine-5-carboxamide]",melting point: 124 to 130 °C
740 nM,180 nM,220 nM,"CCCn1cc(C(=O)NCc2ccc(Cl)cc2)c(=O)c2cc(CN(C)C[C@@H](O)c3ccco3)sc21 [Example 32, N-(4-Chlorobenzyl)-2-((((2R)-2-(2-furyl)-2-hydroxyethyl)(methyl)amino)methyl)-4-oxo-7-propyl-4,7-dihydrothieno[2,3-b]pyridine-5-carboxamide]",
170 nM,90 nM,80 nM,"CCn1cc(C(=O)NCc2ccc(Cl)cc2)c(=O)c2cc(CN(C)CC(O)c3cc4ccccc4o3)sc21 (racemic) [Example 22, rac-2-(((2-(1-Benzofuran-2-yl)-2-hydroxyethyl)(methyl)amino)methyl)-N-(4-chlorobenzyl)-7-ethyl-4-oxo-4,7-dihydrothieno[2,3-b]pyridine-5-carboxamide]",
780 nM,210 nM,290 nM,"CN(Cc1cc2c(=O)c(C(=O)NCc3ccc(Cl)cc3)cn(C)c2s1)C[C@@H](O)c1ccn[nH]1 (single isomer, unassigned) [Example 19]",

# Continued, molecule first:
SMILES,IC50 (HSV polymerase; [1]),IC50 (HCMV polymerase; [2]),IC50 (VZV polymerase; [3]),further results
"CN(Cc1cc2c(=O)c(C(=O)NCc3ccc(Cl)cc3)cn(C)c2s1)CC(O)c1ccc(Cl)o1 (centres unmarked) [Example 33, N-(4-Chlorobenzyl)-2-(((2-(5-chloro-2-furyl)-2-hydroxyethyl)(methyl)amino)-methyl)-7-methyl-4-oxo-4,7-dihydrothieno[2,3-b]pyridine-5-carboxamide]",80 nM,20 nM,,
"COCCn1cc(C(=O)NCc2ccc(Cl)cc2)c(=O)c2cc(CN(C)CC(O)c3cc4ccccc4o3)sc21 (racemic) [Example 24, rac-2-(((2-(1-Benzofuran-2-yl)-2-hydroxyethyl)(methyl)amino)methyl)-N-(4-chlorobenzyl)-7-(2-methoxyethyl)-4-oxo-4,7-dihydrothieno[2,3-b]pyridine-5-carboxamide]",,310 nM,,melting point: 133 to 140 °C
"CN(Cc1cc2c(=O)c(C(=O)NCc3ccc(Cl)cc3)cn(CCO)c2s1)CC(O)c1cc2ccccc2o1 (racemic) [Example 29, rac-2-(((2-(1-Benzofuran-2-yl)-2-hydroxyethyl)(methyl)amino)methyl)-N-(4-chlorobenzyl)-7-(2-hydroxyethyl)-4-oxo-4,7-dihydrothieno[2,3-b]pyridine-5-carboxamide]",,600 nM,,
"CCCn1cc(C(=O)NCc2ccc(Cl)cc2)c(=O)c2cc(CN(C)CC(O)c3cc4ccccc4o3)sc21 (racemic) [Example 23, rac-2-(((2-(1-Benzofuran-2-yl)-2-hydroxyethyl)(methyl)amino)methyl)-N-(4-chlorobenzyl)-7-propyl-4-oxo-4,7-dihydrothieno[2,3-b]pyridine-5-carboxamide]",,260 nM,,
"CN(Cc1cc2c(=O)c(C(=O)NCc3ccc(Cl)cc3)cn(CCCO)c2s1)C[C@@H](O)c1ccco1 [Example 27, N-(4-Chlorobenzyl)-2-((((2R)-2-(2-furyl)-2-hydroxyethyl)(methyl)amino)methyl)-7-(3-hydroxypropyl)-4-oxo-4,7-dihydrothieno[2,3-b]pyridine-5-carboxamide]",,,,IC50 (HSV polymerase): 590 nM; IC50 (VZV polymerase): 280 nM; IC50 (HCMV polymerase): 360 nM
"CN(Cc1cc2c(=O)c(C(=O)NCc3ccc(Cl)cc3)cn(CC(O)CO)c2s1)C[C@@H](O)c1ccco1 (stereo partly drawn) [Example 26, N-(4-Chlorobenzyl)-7-(2,3-dihydroxypropyl)-2-((((2R)-2-(2-furyl)-2-hydroxy-ethyl)(methyl)amino)methyl)-4-oxo-4,7-dihydrothieno[2,3-b]pyridine-5-carboxamide]",540 nM,150 nM,330 nM,
"CN(Cc1cc2c(=O)c(C(=O)NCc3ccc(Cl)cc3)cn(CC(O)CO)c2s1)CC(O)c1cc2ccccc2o1 (racemic) [Example 25, rac-2-(((2-(1-Benzofuran-2-yl)-2-hydroxyethyl)(methyl)amino)methyl)-N-(4-chlorobenzyl)-7-(2,3-dihydroxypropyl)-4-oxo-4,7-dihydrothieno[2,3-b]pyridine-5-carboxamide]",,1800 nM,,
"CN(Cc1cc2c(=O)c(C(=O)NCc3ccc(Cl)cc3)cn(CCCO)c2s1)CC(O)c1cc2ccccc2o1 (racemic) [Example 28, rac-2-(((2-(1-Benzofuran-2-yl)-2-hydroxyethyl)(methyl)amino)methyl)-N-(4-chlorobenzyl)-7-(3-hydroxypropyl)-4-oxo-4,7-dihydrothieno[2,3-b]pyridine-5-carboxamide]",,,,IC50 (HCMV polymerase): 300 nM
"CN(Cc1cc2c(=O)c(C(=O)NCc3ccc(Cl)cc3)cn(C)c2s1)CC(O)c1cccs1 (racemic) [Example 6, rac-N-(4-Chlorobenzyl)-2-(((2-hydroxy-2-thien-2-ylethyl)(methyl)amino)methyl)-7-methyl-4-oxo-4,7-dihydrothieno[2,3-b]pyridine-5-carboxamide]",470 nM,170 nM,150 nM,
